From patent US10105362B2, “Anti-tumor use of anagrelide and derivatives thereof” (SHANGHAI INSTITUTE OF MATERIA MEDICA, CHINESE ACADEMY OF …, priority 2013, dated 2018)
Entries after “also recorded” stand apart in the source; their conditions may differ.

How the values were obtained:
non-sensitive cell lines = test: Growth inhibition of non-sensitive cell lines (summary statement); type: cell-based; settings: concentration raised up to 1 mM/L
[1] = animal experiments, Fleming and Buyniski 1979; cited from earlier work
SMMC7721 cells = test: MTT colorimetry, tumor cell growth/viability; type: cell-based, human; settings: 1 μM, 72 hours
Procedure: (§1) Logarithmic growth phase cells were seeded in 96-well culture plate in appropriate density (100 μl in each well). After overnight cultivation, different concentrations of drugs were added and treated for 72 h, while three wells were set for each concentration. After treatment was completed, 20 μl/well of MTT (5 mg/ml in PBS) was added to each well and affected for 3-5 hours, the medium was suctioned out completely and 100 ul/well of DMSO was added, oscillated on decolorization shaker in dark place for 10 minutes until the Blue purple crystals formazan (formazan) was completely dissolved, the OD (Optical Density) value was detected with a microplate reader (detection wavelength: […]; reference wavelength: 650 nM). In blank group, culture medium only added without cells, and in control group, DMSO in the same volume as that for drug was added. Cell viability was calculated=(OD value of experimental group−OD value of control group)/(OD value of control group−OD value of blank group). Tumor cells from different tissue source were selected, and the concentration of Anagrelide was 1 μM and 50 μM, OD value was MTT detected after administrated for 72 hours, and the cell viability was calculated using cell viability=(administered group OD-blank group OD)/(control group OD-blank group OD)*100%, and was mapped by using GraphPadPrism 4 software. IC50 values on this seven cell lines of Anagrelide were detect by MTT method, and all of them are less than 100 nM (Table 2).

A498 cells = test: MTT colorimetry, tumor cell growth/viability; type: cell-based, human; settings: for IC50: A498, MTT, 72 h
Procedure: as §1

SW1116 cells = test: MTT colorimetry, tumor cell growth/viability; type: cell-based, human; settings: 1 μM, 72 hours
Procedure: as §1

Bel7404 cells = test: MTT colorimetry, tumor cell growth/viability; type: cell-based, human; settings: 1 μM, 72 hours
Procedure: as §1

HeLa cells [2] = test: MTT colorimetry, tumor cell growth/viability; type: cell-based, human; settings: 1 μM, 72 hours
Procedure: as §1

FHCC98 cells = test: MTT colorimetry, tumor cell growth/viability; type: cell-based, human; settings: 1 μM, 72 hours
Procedure: as §1

H4 cells = test: MTT colorimetry, tumor cell growth/viability; type: cell-based, human; settings: 1 μM, 72 hours
Procedure: as §1

[3] = Blood routine test of tumor-bearing nude mice (WBC, RBC, Hb, PLT); type: in vivo, BALB/c naked mouse; settings: day 21, vs vehicle control
Procedure: (§2) Under aseptic conditions, tumor cells in the proliferation stage were taken. The cell concentration was adjusted after digestion, seeded at right armpit of nude mice, and the inoculated volume was 0.1 mL. Tumor diameter was measured with vernier caliper, after the tumor was grown to 200-300 mm^3, the tumor-bearing mice were selected, and randomly divided into 3 groups (n=4) according to the size of the tumors: negative control group, Anagrelide I (10 mg/kg), Anagrelide II (30 mg/kg). Each group was intragastric administrated, the day of administration was recorded as d1, the negative control group was given same amount of vehicle, and then the long and short diameters of tumor were measured twice a week, while the body weights of mice were weighed. At the 21th day of the administration, the animals were sacrificed and the tumor was dissected and weighed. Before the animals were sacrificed, eyeball was taken for blood sample, the number of white blood cell (WBC), red blood cell (RBC), concentration of hemoglobin (Hb) and number of platelet (PLT) were measured.

phosphodiesterase (PDE) = settings: subsequent studies; cited from earlier work
HeLa cells [4] = test: Cell migration detection via scratch experiment; type: cell-based, human; settings: 100 nM, serum-free medium, up to 24 hours
Procedure: The bottom of the six-well plate was uniformly marked with horizontal strips by marker, and then the logarithmic growth phase cells were seeded in the plate by 120×10^4 /mL concentration to make the cells evenly cover the six-well plate, and cells were incubated under 37° C. overnight. Fresh serum-free medium was changed, after the cells were starved for 10 hours, the bottom of six-well plate was scratched perpendicularly to horizontal strips, and washed three times with serum-free medium. After the suspended cells were rinsed, serum-free medium was added and photographed in 0, 2, 6, 12, and 24 hours. Image J was used to calculate the moving distance of the cells. By Scratching assay (HeLa cells were used as an example), the effect of Anagrelide on tumor cell migration was detected.

Wi38 cells = test: MTT colorimetry, tumor cell growth/viability; type: cell-based, human; settings: 50 μM, 72 hours
Procedure: as §1, with “software.” for “software. IC50 values on this seven cell lines of Anagrelide were detect by MTT method, and all of them are less than 100 nM (Table 2).”

U87-MG cells = test: MTT colorimetry, tumor cell growth/viability; type: cell-based, human; settings: 50 μM, 72 hours
Procedure: as §1, with “software.” for “software. IC50 values on this seven cell lines of Anagrelide were detect by MTT method, and all of them are less than 100 nM (Table 2).”

H1299 cells = test: MTT colorimetry, tumor cell growth/viability; type: cell-based, human; settings: 50 μM, 72 hours
Procedure: as §1, with “software.” for “software. IC50 values on this seven cell lines of Anagrelide were detect by MTT method, and all of them are less than 100 nM (Table 2).”

MDA-MB-231 cells = test: MTT colorimetry, tumor cell growth/viability; type: cell-based, human; settings: 50 μM, 72 hours
Procedure: as §1, with “software.” for “software. IC50 values on this seven cell lines of Anagrelide were detect by MTT method, and all of them are less than 100 nM (Table 2).”

DU145 cells = test: MTT colorimetry, tumor cell growth/viability; type: cell-based, human; settings: 50 μM, 72 hours
Procedure: as §1, with “software.” for “software. IC50 values on this seven cell lines of Anagrelide were detect by MTT method, and all of them are less than 100 nM (Table 2).”

MDA-MB-468 cells = test: MTT colorimetry, tumor cell growth/viability; type: cell-based, human; settings: 50 μM, 72 hours
Procedure: as §1, with “software.” for “software. IC50 values on this seven cell lines of Anagrelide were detect by MTT method, and all of them are less than 100 nM (Table 2).”

[5] = test system: human H4 transplantation tumor; test: Human H4 transplantation tumor in nude mice, tumor growth; type: in vivo, BALB/c naked mouse; settings: for anti-tumor effect (tumor volume, tumor growth): 21 days, vs vehicle control; for tumor weight: end of the experiment (day 21)
Procedure: as §2

IC50 (A498 cells): 53 nM | IC50 (A498 cells; Homo sapiens, A498, 72 h): < 100 nM | blood routine test index (WBC, RBC, Hb, PLT) ([3]; 10 mg/kg intragastric): didn't show any significant decrease | blood routine test index (WBC, RBC, Hb, PLT) ([3]; 30 mg/kg intragastric): didn't show any significant decrease
SMILES: O=C1CN2Cc3c(ccc(Cl)c3Cl)N=C2N1 [Anagrelide, 6,7-dichloro-1,5-dihydro-imidazo [2,1-b] quinazolin-2 (3H)-one]
growth inhibition of non-sensitive cell lines (non-sensitive cell lines): does not have any growth inhibition effect | anti-thrombotic function [1]: significant anti-thrombotic function | inhibition of cell growth (SMMC7721 cells): significantly inhibited growth | inhibition of cell growth (A498 cells; 1 μM, 72 hours, MTT, A498): significantly inhibited growth | inhibition of cell growth (SW1116 cells): significantly inhibited growth | inhibition of cell growth (Bel7404 cells): significantly inhibited growth | inhibition of cell growth (HeLa cells [2]): significantly inhibited growth | inhibition of cell growth (FHCC98 cells): significantly inhibited growth | inhibition of cell growth (H4 cells): significantly inhibited growth | phosphodiesterase (PDE) activity (phosphodiesterase (PDE)): capable of inhibiting phosphodiesterase (PDE) activity | healing speed of scratch (cell migration) (HeLa cells [4]): significantly inhibit the healing speed of scratch | inhibition of cell growth (Wi38 cells): inhibited their growth | inhibition of cell growth (U87-MG cells): inhibited their growth | inhibition of cell growth (H1299 cells): inhibited their growth | inhibition of cell growth (MDA-MB-231 cells): inhibited their growth | inhibition of cell growth (DU145 cells): inhibited their growth | inhibition of cell growth (MDA-MB-468 cells): inhibited their growth | anti-tumor effect (tumor volume, tumor growth) ([5]; 10 mg/kg intragastric): significant anti-tumor effect | tumor weight ([5]; 10 mg/kg intragastric): significantly lower than that of the vehicle control group | anti-tumor effect (tumor volume, tumor growth) ([5]; 30 mg/kg intragastric): significant anti-tumor effect | tumor weight ([5]; 30 mg/kg intragastric): significantly lower than that of the vehicle control group; also recorded: less than that of Anagrelide I (10 mg/kg) group
